Measurements reported in US20130216585A1, “COMPOSITION AND METHODS FOR QUENCHING FREE RADICALS AND MODULATING INFLAMMATION” (FLAVITPURE, INC., priority 2012, published 2013).

Tests used:
[1] = test system: 8-hydroxy-2′-deoxyguanosine; conditions: Fenton reaction catalyzed by copper; cited from earlier work
[2] = ORAChydro (Oxygen Radical Absorbance Capacity) assay; type: physicochemical
From the text: (§1) Dihydroquercetin is a:far more powerful antioxidant than vitamins A, C and E, as indicated by its comparative USDA ranking of the Oxygen Radical Absorbance Capacity (ORAC) and supported by other additional studies such as Cell-based Antioxidant Protection (CAP-e) assay against peroxyl radical, which is used to test whether natural products contain antioxidants capable of entering into and protecting live cells from oxidative damage.
(§2) The majority of HAT-based assays apply a competitive reaction scheme, in which antioxidant and substrate compete for thermally generated peroxyl radicals through the decomposition of azo compounds. ORAC and CAP-e can also be applied as an assays for the inhibition of induced low-density lipoprotein oxidation and other oxygen radical absorbances. […]
(§3) Among all the HAT-based assays, ORAC and CAP-e adopted an AUC (area under curve) technique to quantify antioxidant capacity. […]
(§4) Therefore, the ORAC and CAP-e assays has been broadly applied in academics and the food and supplement industry as the method of choice to quantify antioxidant capacity. […] The ORAChydro value of our dihydroquercetin has been measured at is 3,890 micromole of Trolox equivalent per […] capsule or 28,000 micromole Trolox equivalent per gram. The CAP-e value of our dihydroquercetin has been measured at is 9.9 CAP-e units per gram.

bacterial mutagenicity = bacterial mutagenicity tests, cited from earlier work
[3] = test system: umbilical vein endothelial (HUVE) cells; conditions: cited from earlier work
[4] = test system: human lung embryonic fibroblasts (TIG-1); conditions: TIG-1 cells; cited from earlier work
peroxyl radical = test: Cell-based Antioxidant Protection (CAP-e) assay; conditions: per gram
From the text: as §1, §2, §3, §4

[5] = clinical feedback, usually females; cited from earlier work

## O=C1c2c(O)cc(O)cc2O[C@H](c2ccc(O)c(O)c2)[C@H]1O [Dihydroquercetin]
[1]
  pro-oxidant activity: did not present pro-oxidant activity
[2]; per 412.3 mg capsule
  ORAChydro value: 3,890 micromole of Trolox equivalent per 412.3 mg capsule
[2]; per gram
  ORAChydro value: 28,000 micromole Trolox equivalent per gram
Bacterial mutagenicity; relative to quercetin
  times less mutagenic than quercetin: 400 times
Bacterial mutagenicity
  minimum mutagenic dose: 1626 nmol
[3]
  50% lethal concentration: > 200 µmol
[4]
  50% lethal concentration: > 300 µmol
Peroxyl radical
  CAP-e value: 9.9 CAP-e units per gram

## O=c1c(O)c(-c2ccc(O)c(O)c2)oc2cc(O)cc(O)c12 [quercetin, reference compound]
Bacterial mutagenicity
  minimum mutagenic dose: 4 nml

## Larch Arabinogalactan
[5]
  occasional reaction of bloating and flatulence, share of individuals: less than three percent

## catechin [reference compound]
[1]
  pro-oxidant activity: did not present pro-oxidant activity
